# Measured values: ChEMBL document CHEMBL1133272, “A solid-phase synthesis for beta-turn mimetics of sialyl Lewis X” (Bioorg Med Chem Lett, 2000)
# How the values were obtained:
# E-selectin = biological target: T1, E-selectin (Homo sapiens, UniProt P16581); test: In vitro inhibitory activity of compound was determined against Selectin E binding by ELISA assay
# T1 sequence (P16581 whole entry): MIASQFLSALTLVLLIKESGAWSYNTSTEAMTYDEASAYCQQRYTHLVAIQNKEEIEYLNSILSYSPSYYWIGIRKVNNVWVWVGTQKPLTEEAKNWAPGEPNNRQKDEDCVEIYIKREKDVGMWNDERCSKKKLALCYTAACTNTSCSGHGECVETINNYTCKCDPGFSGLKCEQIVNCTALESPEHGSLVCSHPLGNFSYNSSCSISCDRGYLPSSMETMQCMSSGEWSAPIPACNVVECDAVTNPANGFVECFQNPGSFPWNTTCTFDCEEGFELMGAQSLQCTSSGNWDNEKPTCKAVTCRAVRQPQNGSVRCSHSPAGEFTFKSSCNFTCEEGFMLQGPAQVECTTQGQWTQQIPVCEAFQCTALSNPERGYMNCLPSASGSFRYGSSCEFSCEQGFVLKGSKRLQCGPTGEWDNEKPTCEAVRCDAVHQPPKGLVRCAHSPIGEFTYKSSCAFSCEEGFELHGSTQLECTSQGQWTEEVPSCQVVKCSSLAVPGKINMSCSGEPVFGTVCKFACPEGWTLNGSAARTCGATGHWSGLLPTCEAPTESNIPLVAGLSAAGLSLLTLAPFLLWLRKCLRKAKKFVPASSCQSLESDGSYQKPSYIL
# P-selectin = biological target: T2, P-selectin (Homo sapiens, UniProt P16109); test: In vitro inhibitory activity of compound was determined against Selectin P binding by ELISA assay
# T2 sequence (P16109 whole entry): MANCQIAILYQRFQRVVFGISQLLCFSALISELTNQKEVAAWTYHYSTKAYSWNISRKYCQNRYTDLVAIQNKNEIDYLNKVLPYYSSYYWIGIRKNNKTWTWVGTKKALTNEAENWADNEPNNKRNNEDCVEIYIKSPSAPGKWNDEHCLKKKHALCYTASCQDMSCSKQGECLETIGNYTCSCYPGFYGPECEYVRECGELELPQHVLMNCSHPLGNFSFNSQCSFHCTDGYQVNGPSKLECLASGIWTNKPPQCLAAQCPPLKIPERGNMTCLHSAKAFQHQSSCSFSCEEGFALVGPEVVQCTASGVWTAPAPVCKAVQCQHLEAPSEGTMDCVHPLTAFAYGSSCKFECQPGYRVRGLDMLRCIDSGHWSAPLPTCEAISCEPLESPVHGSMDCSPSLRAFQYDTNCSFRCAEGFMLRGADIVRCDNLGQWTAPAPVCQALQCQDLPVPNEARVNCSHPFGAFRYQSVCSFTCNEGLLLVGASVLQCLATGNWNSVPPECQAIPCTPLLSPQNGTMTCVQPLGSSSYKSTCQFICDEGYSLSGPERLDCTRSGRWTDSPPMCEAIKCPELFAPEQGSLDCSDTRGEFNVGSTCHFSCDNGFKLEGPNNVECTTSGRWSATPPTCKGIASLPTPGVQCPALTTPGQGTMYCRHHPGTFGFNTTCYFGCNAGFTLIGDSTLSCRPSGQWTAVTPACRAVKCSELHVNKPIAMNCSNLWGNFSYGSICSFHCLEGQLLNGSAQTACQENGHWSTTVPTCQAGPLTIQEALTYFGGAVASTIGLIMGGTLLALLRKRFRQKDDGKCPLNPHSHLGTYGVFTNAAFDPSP
# L-selectin = biological target: T3, L-selectin (Homo sapiens, UniProt P14151); test: In vitro inhibitory activity of compound was determined against Selectin L binding by ELISA assay
# T3 sequence (P14151 whole entry): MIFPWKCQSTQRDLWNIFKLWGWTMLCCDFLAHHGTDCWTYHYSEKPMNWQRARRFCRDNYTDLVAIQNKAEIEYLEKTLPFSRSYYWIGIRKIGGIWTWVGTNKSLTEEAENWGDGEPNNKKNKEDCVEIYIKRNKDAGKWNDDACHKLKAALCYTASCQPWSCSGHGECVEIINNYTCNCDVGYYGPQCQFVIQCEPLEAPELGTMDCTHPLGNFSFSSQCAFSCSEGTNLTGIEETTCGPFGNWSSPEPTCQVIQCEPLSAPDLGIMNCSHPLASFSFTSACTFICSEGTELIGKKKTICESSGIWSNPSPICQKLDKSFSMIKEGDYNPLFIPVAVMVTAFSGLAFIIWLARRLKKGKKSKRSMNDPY
Compound,IC50 (E-selectin) [µM],IC50 (P-selectin) [µM],IC50 (L-selectin) [µM]
CCCCCCCCCCCCCCC(CCCCCCCCCCCCCC)C(=O)N[C@@H](CO[C@@H]1O[C@@H](CO)[C@H](O)[C@H](O)[C@H]1O)C(=O)N[C@H](CCC(=O)O)C(=O)NC,3.5,0.45,4
CCCCCCCCCCCCCCC(CCCCCCCCCCCCCC)CN1CCCS[C@@H](CCC(=O)O)C(=O)N[C@H](CO[C@H]2O[C@H](CO)[C@@H](O)[C@@H](O)[C@@H]2O)C1=O,> 100,2.57,2.34
CC(=O)N[C@H]1[C@H]([C@H](O)[C@H](O)CO)O[C@@](O[C@H]2[C@@H](O)[C@@H](CO)O[C@@H](O[C@@H]([C@H](O[C@@H]3O[C@@H](C)[C@@H](O)[C@@H](O)[C@@H]3O)[C@H](C=O)NC(C)=O)[C@H](O)CO)[C@@H]2O)(C(=O)O)C[C@@H]1O [SIALYL LEWIS X],,> 1000,> 1000
